Measurements published in patent US5972598A, “Methods for preventing multidrug resistance in cancer cells” (priority 1995, dated 1999).
Entries after “also recorded” stand apart in the source; their conditions may differ. Read-outs that look alike come from different tables or passages of the source.

How the values were obtained:
[1] = system: hormone-refractory prostate cancer; settings: continuous infusion, peak of 300 μg/ml at end of 14 days; cited from earlier work
MDR1 [2] = test: Inhibition of cytotoxic drug (Ara-C) induced MDR1 expression by protein kinase inhibitors; assay type: cell-based, human; settings: for inhibition of Ara-C induced MDR1 expression: 5 μM
Protocol: FIG. 5. Effect of protein kinase inhibitors on MDR1 mRNA induction by cytotoxic drugs in H9 cells. […]
(Commercially-available kits (for example, from GIBCO/BRL, Gaithersburg, Md.) can be advantageously modified for making cDNA using random hexamers.) PCR is then performed using the following primers: […]
(§1) (where β2 M represents β2 microglobulin). PCR was performed for β2 M experiments under a regime consisting of 1 cycle comprising denaturation at 94° C. for 3 minutes, primer annealing at 60° C. for 30 seconds, and primer extension at 72° C. for 1 minute, followed by 19 cycles comprising denaturation at 94° C. for 30 seconds, primer annealing at 60° C. for 30 seconds, and primer extension at 72° C. for 1 minute, followed by a final cycle comprising denaturation at 94° C. for 30 seconds, primer annealing at 60° C. for 30 seconds, and primer extension at 72° C. for 5 minutes. MDR1 cDNA sequences were amplified using the identical protocol as for β2 M, but extending the amplification from 19 cycles to 25 cycles. In addition, the cDNA-PCR amplification protocol contained the following modifications: (i) Taq DNA polymerase was added to the PCR mixtures after initial heating of the samples to 94° C. (ii) The yield of the β2 -microglobulin-specific band, obtained after 22-28 cycles of PCR, was used as the primary criterion for equalizing the starting amounts of the cDNA templates in different preparations, in order to account for differential RNA degradation in cells subjected to different types of treatment. […] PCR products were detected by autoradiography.
Cells were plated in 6-well Falcon tissue culture plates at 3,300 cells per well, and incubated in the appropriate concentrations of drugs. Each of the protein kinase inhibitors to be tested were added at their appropriate final concentrations 45 minutes prior to MDR1 induction by the addition of Ara-C or TPA, with the exception of herbimycin A, which was added 12 hours prior to Ara-C or TPA, and tyrphostins A25 and B46, which were each added 16 hours prior to MDR1 induction by the addition of Ara-C or TPA. Cells were incubated overnight (TPA) or for 10 hours (Ara-C) at 37° C. under an atmosphere of 5% CO2 after the addition of the MDR1 inducing agents before harvesting for cDNA-PCR analysis.
In addition to these conditions, the analysis of certain drugs imposed added requirements. For experiments using calphostin C, cells were incubated under direct white light illumination. For experiments using D,L-threo-sphingosine, the cell culture medium was pre-treated with the appropriate concentration of the drug for one hour at 37° C. with continuous gentle mixing. After this pre-treatment, cells were resuspended in media supplemented with drug and incubated for 45 minutes as described above.
cDNA-PCR analyses on each culture treated with drugs, or in control cultures incubated in the absence or presence of Ara-C or TPA alone, were performed as described in Section 6.1.3 above.
To further evaluate the capacity of protein kinase inhibitors to suppress MDR1 induction by cytotoxic drugs and PKC agonists, H-9 human T cell leukemia cells were used in cDNA-PCR assays to examine induced MDR1 mRNA expression levels in the presence of such protein kinase inhibitors.

protein kinases = settings: 10-fold weaker than H7; Pelosin et al., 1990; cited from earlier work
H9 cells = test: Cellular toxicity in H9 cells; settings: concentrations higher than 5 μM
MDR1 [3] = assay type: cell-based, human
Protocol: (§2) Neomycin sulfate (Calbiochem) was dissolved in sterile, deionized water.
(§3) P-glycoprotein expression on the cell surface was analyzed using a P-glycoprotein-specific mouse IgG2a monoclonal antibody (mAB) UIC2 (Mechetner and Roninson, 1992, Proc. Natl. Acad. Sci. USA 89:5824-5828). Mouse IgG2a isotype control antibody was obtained from Sigma. For staining of PBL with UIC2 mAB or isotype control, 10^6 cells were stained at 4° C. with 10 μg of the antibody for 30 minutes and, after two washes, stained for 30 minutes with 10 μg of FITC-conjugated goat anti-mouse IgG2a antibody (Fisher Scientific, Fairlawn, N.J.), diluted 1:2 with PBS plus 2% FCS. Cells were then washed twice with ice-cold PBS plus 2% FCS, stained with PI and kept on ice until analysis. Essentially the same protocol was used for staining of other cell types except that 2 μg of the secondary antibody were used per 10^6 cells. In some experiments, phycoerythrine (PE)-conjugated goat anti-mouse IgG2a was used as the secondary antibody; no PI was added in such cases. Flow cytometric analysis was conducted on a Coulter Epics 753 Flow Cytometer.
(§4) RNA was extracted from approximately 10^6 cells by a small-scale sodium dodecyl sulfate extraction procedure (Peppel and Baglioni, 1990, BioTechniques 9:711-713). In the alternative, RNA was isolated from cells using the TRIzol method (commercially available from GIBCO/BRL). cDNA synthesis and polymerase chain reaction (PCR) amplification of MDR1 and β2 -microglobulin cDNA sequences were carried out essentially as described (Noonan et al., 1990, Proc. Natl. Acad. Sci. USA 87:7160-7164; Noonan and Roninson, 1991, pp. 319-333 In Roninson (Ed.), Molecular and Cellular Biology of Multidrug Resistance in Tumor Cells, Plenum Press, New York). Briefly, cDNA was prepared using the method of Krug and Berger (1987, Meth. Enzymol. 152: 316-324), with the modification that random hexamers were substituted for oligo(dT) as primers for cDNA synthesis. (Commercially-available kits (for example, from GIBCO/BRL, Gaithersburg, Md.) can be advantageously modified for making cDNA using random hexamers.) PCR is then performed using the following primers: […]
as §1
MDR1 gene expression was evaluated by a functional assay for Rh123

P-glycoprotein [4] = target: P-glycoprotein (Homo sapiens, UniProt P08183); test: Rh123 accumulation assay of P-glycoprotein activity in human PBL; settings: human PBL
Chain of P-glycoprotein (Homo sapiens, UniProt P08183) (P08183 whole entry): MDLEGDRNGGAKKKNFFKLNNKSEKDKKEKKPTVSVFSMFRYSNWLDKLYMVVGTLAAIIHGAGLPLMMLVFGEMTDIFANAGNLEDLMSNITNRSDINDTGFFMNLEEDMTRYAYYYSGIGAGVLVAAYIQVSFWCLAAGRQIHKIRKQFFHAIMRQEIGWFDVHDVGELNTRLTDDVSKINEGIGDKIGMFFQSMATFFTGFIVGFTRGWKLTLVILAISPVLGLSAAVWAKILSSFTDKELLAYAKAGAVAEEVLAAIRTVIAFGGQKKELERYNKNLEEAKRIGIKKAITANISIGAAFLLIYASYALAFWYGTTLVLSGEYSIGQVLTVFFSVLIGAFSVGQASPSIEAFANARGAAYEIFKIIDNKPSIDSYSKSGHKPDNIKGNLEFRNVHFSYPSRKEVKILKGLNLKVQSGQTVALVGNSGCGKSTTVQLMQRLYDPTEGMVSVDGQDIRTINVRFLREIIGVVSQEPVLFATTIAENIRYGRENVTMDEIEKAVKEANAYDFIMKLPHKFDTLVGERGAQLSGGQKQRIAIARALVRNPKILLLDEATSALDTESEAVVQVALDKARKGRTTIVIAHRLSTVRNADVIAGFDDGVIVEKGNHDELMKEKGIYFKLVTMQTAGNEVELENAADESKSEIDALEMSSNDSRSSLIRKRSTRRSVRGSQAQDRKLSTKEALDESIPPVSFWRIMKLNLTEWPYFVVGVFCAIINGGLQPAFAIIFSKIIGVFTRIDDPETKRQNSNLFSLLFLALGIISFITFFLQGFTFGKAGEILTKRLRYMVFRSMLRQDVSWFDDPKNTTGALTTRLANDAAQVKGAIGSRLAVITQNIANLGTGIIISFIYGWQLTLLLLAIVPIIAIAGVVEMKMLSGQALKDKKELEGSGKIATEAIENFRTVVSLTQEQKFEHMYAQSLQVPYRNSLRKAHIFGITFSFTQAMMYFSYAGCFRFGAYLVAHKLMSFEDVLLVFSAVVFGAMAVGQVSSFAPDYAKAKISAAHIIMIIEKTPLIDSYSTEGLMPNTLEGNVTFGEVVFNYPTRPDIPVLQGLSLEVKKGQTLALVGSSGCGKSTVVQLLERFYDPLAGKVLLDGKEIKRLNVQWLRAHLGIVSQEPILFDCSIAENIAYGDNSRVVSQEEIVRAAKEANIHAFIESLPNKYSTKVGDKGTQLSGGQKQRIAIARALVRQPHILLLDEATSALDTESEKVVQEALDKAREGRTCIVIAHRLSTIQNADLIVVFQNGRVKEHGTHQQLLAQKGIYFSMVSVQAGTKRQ
Protocol: KG1 cell line was maintained in Iscove's modified Dulbecco medium with 20% fetal calf serum (FCS) and 2 mM L-glutamine, 100 units/ml penicillin and 100 μg/ml streptomycin (GIBCO Laboratories, Grand Island, N.Y.).
A functional assay was used to detect changes in P-glycoprotein activity in human PBL treated with different agents that induce lymphoid differentiation or activation, based on flow cytometric analysis of cellular accumulation of Rh123, which is a P-glycoprotein-transported fluorescent mitochondrial dye. In this assay, cells expressing little or no P-glycoprotein stain brightly with Rh123, whereas cells with higher levels of P-glycoprotein activity appear Rh123-dull. […] Since the best-known cellular effect of TPA is the stimulation of PKC, it was also tested whether DOG, a cell-permeable diacylglycerol and a physiological stimulant of PKC, would have an effect on Rh123 accumulation in PBL.

P-glycoprotein [5] = test: UIC2 antibody staining of P-glycoprotein on the cell surface; assay type: cell-based; settings: human PBL
Protocol: as §3
To determine if the observed effect of PKC stimulants on P-glycoprotein activity could be due to an increase in P-glycoprotein expression, untreated and TPA-treated PBL were stained by indirect immunofluorescence labeling with a monoclonal antibody UIC2 that recognized an extracellular epitope of P-glycoprotein encoded by the human MDR1 gene. […]

MDR1 [6] = system: MDR1; set-up: key to the marks not given beside the values
MDR1 [7] = test: cDNA-PCR / flow cytometric analysis of MDR1 induction by PKC agonists; assay type: cell-based, human
Protocol: as §2, §3, §4, §1

## Cc1ccc(C(=O)Nc2ccc(S(=O)(=O)O)c3cc(S(=O)(=O)O)cc(S(=O)(=O)O)c23)cc1NC(=O)c1cccc(NC(=O)Nc2cccc(C(=O)Nc3cc(C(=O)Nc4ccc(S(=O)(=O)O)c5cc(S(=O)(=O)O)cc(S(=O)(=O)O)c45)ccc3C)c2)c1 [suramin]
[1]
  activity in hormone-refractory prostate cancer: shown activity in hormone-refractory prostate cancer

## CC1CN(S(=O)(=O)c2cccc3cnccc23)CCN1 (stereo not drawn) [IsoH7]
MDR1 [2]; IsoH7
  inhibition of drug-induced MDR1 expression: No significant inhibition
Protein kinases
  effect on protein kinases relative to H7: 10 fold

## CCCCCCCCCCCCC/C=C/[C@H](O)[C@@H](N)CO (relative stereo) [D,L-threo-sphingosine]
MDR1 [2]
  inhibition of Ara-C induced MDR1 expression: little or no capacity to inhibit Ara-C induced MDR1 expression; also recorded: ineffective in inhibiting Ara-C induced MDR1 expression
MDR1 [2]; H9 cells, 25 μM Ara-C 10 h
  inhibition of Ara-C induced MDR1 expression: -
H9 cells
  cellular toxicity: higher concentrations induced cellular toxicity

## CCCCCCCCCCCCCC(=O)O[C@@H]1[C@@H](C)[C@@]2(O)[C@@H](C=C(CO)C[C@]3(O)C(=O)C(C)=C[C@@H]23)[C@@H]2C(C)(C)[C@]12OC(C)=O [TPA, 12-o-tetradecanoylphorbol-13-acetate]
MDR1 [3]
  MDR1 expression, TPA-treated: -
MDR1 [3]; 0.001 ug/mL
  MDR1 expression, TPA-treated: ++
MDR1 [3]; 0.01 ug/mL
  MDR1 expression, TPA-treated: ++
MDR1 [3]; 0.1 ug/mL
  MDR1 expression, TPA-treated: +++
MDR1 [3]; EJ (bladder carcinoma), untreated +, assay F
  MDR1 expression, TPA-treated: ++
MDR1 [3]; HT 1080 (fibrosarcoma), untreated -, assays F, R
  MDR1 expression, TPA-treated: -
MDR1 [3]; MCF-7 (breast carcinoma), untreated -, assay R
  MDR1 expression, TPA-treated: +
MDR1 [3]; Molt-4 (T-cell leukemia), untreated -, assay F
  MDR1 expression, TPA-treated: -
MDR1 [3]; THP-1, untreated -, assay F
  MDR1 expression, TPA-treated: -
P-glycoprotein [4]
  effect on P-glycoprotein activity (Rh123 accumulation): significant increase in the number of Rh123-dull cells
P-glycoprotein [5]
  P-glycoprotein on the cell surface: markedly increased the levels of P-glycoprotein on the cell surface
MDR1 [6]
  MDR1 expression, TPA-treated: ++
MDR1 [6]; mouse FL4 (thymoma), untreated ++, assay F
  MDR1 expression, TPA-treated: +++
MDR1 [7]; EJ bladder carcinoma cells
  increase of MDR1 expression: increase of MDR1 expression
MDR1 [7]; H9 cells
  induction of MDR1 mRNA and P-glycoprotein: clear-cut induction of MDR1 mRNA and P-glycoprotein
MDR1 [7]; H9 cells, TPA
  time after addition at which MDR1 mRNA became detectable: 2 h
  time until which MDR1 mRNA continued to increase: ≥ 5 h
MDR1 [7]; H-9 cells, 10 ng/ml overnight
  MDR1 expression induced by TPA alone: efficiently induced readily detectable MDR1 expression
MDR1 [7]; K562 cells
  induction of MDR1 mRNA and P-glycoprotein: clear-cut induction of MDR1 mRNA and P-glycoprotein
MDR1 [7]; MCF-7 breast carcinoma cells
  increase of MDR1 expression: increase of MDR1 expression
MDR1 [7]; human PBL, PCR
  MDR1 mRNA levels: corresponding increase in MDR1 mRNA levels
